Measured values: PubChem BioAssay AID1259411 (Chemical Carcinogenesis Research Information System (CCRIS), 2018)
Activity calls are given as the source filed them. How the calls were made is not given here.

Tested on: rodent carcinogenicity bioassays, tumor incidence
Assay: CCRIS carcinogenicity studies
Procedure, shortened: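 Archive of carcinogenicity, mutagenicity, tumor promotion and tumor inhibition results drawn from journals, NCI reports and other sources, expert-reviewed; covers 1985-2011 and is no longer updated.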

[O-][Cl+2]([O-])O
carcinogen call (Species: MOUSE, Strain/Sex: B6C3F1/FEMALE (50, 50, 50, 50), Route: DRINKING WATER, Dose: 0, 500, 1000, 2000 MG/L FOR 105 WKS (STUDY DURATION: 105 WKS), Dose: 0, 500, 1000, 2000 MG/L FOR 105 WKS (STUDY DURATION: 105 WKS), Tumor Site: Type of Lesion: PANCREAS: ADENOMA OR CARCINOMA): equivocal | carcinogen call (Species: MOUSE, Strain/Sex: B6C3F1/MALE (50, 50, 50, 50), Route: DRINKING WATER, Dose: 0, 500, 1000, 2000 MG/L FOR 105 WKS (STUDY DURATION: 105 WKS), Dose: 0, 500, 1000, 2000 MG/L FOR 105 WKS (STUDY DURATION: 105 WKS)): inactive; negative | carcinogen call (Species: RAT, Strain/Sex: F344/N/FEMALE (50, 50, 50, 50), Route: DRINKING WATER, Dose: 0, 125, 1000, 2000 MG/L FOR 105 WK (STUDY DURATION: 105 WKS), Dose: 0, 125, 1000, 2000 MG/L FOR 105 WK (STUDY DURATION: 105 WKS)): inactive; negative; ntp reports as some evidence for thyroid but p values are not statisti | carcinogen call (Species: RAT, Strain/Sex: F344/N/MALE (50, 50, 50, 50), Route: DRINKING WATER, Dose: 0, 125, 1000, 2000 MG/L FOR 105 WK (STUDY DURATION: 105 WKS), Dose: 0, 125, 1000, 2000 MG/L FOR 105 WK (STUDY DURATION: 105 WKS), Tumor Site: Type of Lesion: THYROID: FOLLICULAR CELL ADENOMA OR CARCINOMA): active; positive (p = 0.052); ntp reports as some evidence

Nc1ccn([C@H]2CC[C@@H](CO)O2)c(=O)n1
carcinogen call (Species: MOUSE, Strain/Sex: B6C3F1/FEMALE, Route: GAVAGE, Dose: 0, 500, 1000 MG/KG BW A DAY FOR 6 MO (STUDY DURATION: 6 MO), Dose: 0, 500, 1000 MG/KG BW A DAY FOR 6 MO (STUDY DURATION: 6 MO), Tumor Site: Type of Lesion: THYMUS: LYMPHOMA): active; positive | carcinogen call (Species: MOUSE, Strain/Sex: B6C3F1/FEMALE, Route: GAVAGE, Dose: 0, 500, 1000 MG/KG/D FOR 13 WK (STUDY DURATION: 13 WK), Dose: 0, 500, 1000 MG/KG/D FOR 13 WK (STUDY DURATION: 13 WK)): inactive; negative | carcinogen call (Species: MOUSE, Strain/Sex: B6C3F1/FEMALE, Route: GAVAGE, Dose: 0, 500, 1000 MG/KG/D FOR 13 WK FOLLOWED BY 4 WK OF RECOVERY (STUDY DURATION: 17 WK), Dose: 0, 500, 1000 MG/KG/D FOR 13 WK FOLLOWED BY 4 WK OF RECOVERY (STUDY DURATION: 17 WK)): inactive; negative | carcinogen call (Species: MOUSE, Strain/Sex: B6C3F1/FEMALE, Route: GAVAGE, Dose: 0, 500, 1000 MG/KG/D FOR 13 WK FOLLOWED BY 13 WK FOR RECOVERY (STUDY DURATION: 26 WK), Dose: 0, 500, 1000 MG/KG/D FOR 13 WK FOLLOWED BY 13 WK FOR RECOVERY (STUDY DURATION: 26 WK), Tumor Site: Type of Lesion: THYMUS: LYMPHOMA): active; positive | carcinogen call (Species: MOUSE, Strain/Sex: B6C3F1/FEMALE, Route: GAVAGE, Dose: 0, 1000 MG/KG BW A DAY FOR 3 MO FOLLOWED BY A 3-MO RECOVERY PERIOD (STUDY DURATION: 6 MO), Tumor Site: Type of Lesion: THYMUS: LYMPHOMA, SPLEEN: LYMPHOMA): active; positive | carcinogen call (Species: MOUSE, Strain/Sex: B6C3F1/MALE, Route: GAVAGE, Dose: 0, 500, 1000 MG/KG BW A DAY FOR 6 MO (STUDY DURATION: 6 MO), Dose: 0, 500, 1000 MG/KG BW A DAY FOR 6 MO (STUDY DURATION: 6 MO), Tumor Site: Type of Lesion: THYMUS: LYMPHOMA): active; positive | carcinogen call (Species: MOUSE, Strain/Sex: B6C3F1/MALE, Route: GAVAGE, Dose: 0, 500, 1000 MG/KG/D FOR 13 WK (STUDY DURATION: 13 WK), Dose: 0, 500, 1000 MG/KG/D FOR 13 WK (STUDY DURATION: 13 WK)): inactive; negative | carcinogen call (Species: MOUSE, Strain/Sex: B6C3F1/MALE, Route: GAVAGE, Dose: 0, 1000 MG/KG BW A DAY FOR 3 MO FOLLOWED BY A 3 MO RECOVERY PERIOD (STUDY DURATION: 6 MO), Tumor Site: Type of Lesion: THYMUS: LYMPHOMA): active; positive | carcinogen call (Species: MOUSE, Strain/Sex: NIH SWISS/FEMALE, Route: GAVAGE, Dose: 0, 500, 1000 MG/KG BW A DAY FOR 6 MO (STUDY DURATION: 6 MO), Dose: 0, 500, 1000 MG/KG BW A DAY FOR 6 MO (STUDY DURATION: 6 MO), Tumor Site: Type of Lesion: THYMUS: LYMPHOMA, SPLEEN: LYMPHOMA, LYMPH NODE: LYMPHOMA, Tumor Site: Type of Lesion: THYMUS: LYMPHOMA, SPLEEN: LYMPHOMA, LYMPH NODE: LYMPHOMA): active; positive | carcinogen call (Species: MOUSE, Strain/Sex: NIH SWISS/FEMALE, Route: GAVAGE, Dose: 0, 1000 MG/KG BW A DAY FOR 3 MO FOLLOWED BY A 3-MO RECOVERY PERIOD (STUDY DURATION: 6 MO), Tumor Site: Type of Lesion: THYMUS: LYMPHOMA, SPLEEN: LYMPHOMA, LYMPH NODE: LYMPHOMA, Tumor Site: Type of Lesion: THYMUS: LYMPHOMA, SPLEEN: LYMPHOMA, LYMPH NODE: LYMPHOMA): active; positive | carcinogen call (Species: MOUSE, Strain/Sex: NIH SWISS/MALE, Route: GAVAGE, Dose: 0, 500, 1000 MG/KG BW A DAY FOR 6 MO (STUDY DURATION: 6 MO), Dose: 0, 500, 1000 MG/KG BW A DAY FOR 6 MO (STUDY DURATION: 6 MO), Tumor Site: Type of Lesion: THYMUS: LYMPHOMA): active; positive | carcinogen call (Species: MOUSE, Strain/Sex: NIH SWISS/MALE, Route: GAVAGE, Dose: 0, 1000 MG/KG BW A DAY FOR 3 MO FOLLOWED BY A 3-MO RECOVERY PERIOD (STUDY DURATION: 6 MO), Tumor Site: Type of Lesion: THYMUS: LYMPHOMA): active; positive

CNC(=O)CSP(=S)(OC)OC
carcinogen call (Species: MOUSE, Strain/Sex: B6C3F1/FEMALE, Route: ORAL, Dose: 0, 250, 500 PPM IN DIET, Dose: 0, 250, 500 PPM IN DIET): inactive; negative | carcinogen call (Species: MOUSE, Strain/Sex: B6C3F1/MALE, Route: ORAL, Dose: 0, 250, 500 PPM IN DIET, Dose: 0, 250, 500 PPM IN DIET): inactive; negative | carcinogen call (Species: RAT, Strain/Sex: OSBORNE-MENDEL/FEMALE, Route: ORAL, Dose: 0, 192, 384 PPM IN DIET, TWA, Dose: 0, 192, 384 PPM IN DIET, TWA): inactive; negative | carcinogen call (Species: RAT, Strain/Sex: OSBORNE-MENDEL/MALE, Route: ORAL, Dose: 0, 155, 310 PPM IN DIET, TWA): inactive; negative | carcinogen call (Species: RAT, Strain/Sex: WISTAR/FEMALE, Route: ORAL, Dose: 0, 2, 20, 200 PPM IN DIET FOR 2 YR (STUDY DURATION: 2 YR), Dose: 0, 2, 20, 200 PPM IN DIET FOR 2 YR (STUDY DURATION: 2 YR)): inactive; negative | carcinogen call (Species: RAT, Strain/Sex: WISTAR/MALE, Route: ORAL, Dose: 0, 2, 20, 200 PPM IN DIET FOR 2 YR (STUDY DURATION 2 YR), Dose: 0, 2, 20, 200 PPM IN DIET FOR 2 YR (STUDY DURATION 2 YR)): inactive; negative
